The source of these data is ChEMBL document CHEMBL1140594, “Farnesyltransferase pharmacophore model derived from diverse classes of inhibitors” (Bioorg Med Chem Lett, 2007).

SMILES strings stand for the structures.

The nature of the assay: Inhibition of FTase.

The term IC50 denotes the concentration that gives 50% inhibition. On to `N#Cc1ccc(Cn2ccnc2)cc1Oc1cccc(C2CCCCNC2=O)c1` (stereo not given), for which 41 nM corresponded to half-maximal inhibition (IC50).
In the case of `CC[C@@H](C)[C@@H](CO[C@@H](Cc1ccccc1)C(=O)N[C@@H](CCS(C)(=O)=O)C(=O)O)NC[C@@H](N)CS` it was 1.8 nM; in that of `CN1CCN(C(=O)c2cn(Cc3cncn3Cc3ccc4c(c3)OCO4)cc2-c2cccc3ccccc23)CC1`, 2.4 nM; in that of `Fc1ccc2c(c1)[C@@H](OCc1ccc(Cl)cc1Cl)[C@@H](Cn1ccnc1)S2`, 700 nM.
In the case of `CN1CCC(C2c3ccccc3CCc3cccnc32)CC1` (stereo not given), the midpoint of inhibition, the IC50, lay at 720000 nM.
For `CC(C)CCCC(C)C1CCC2C3C(CC[C@]12C)[C@@](C)(C[C@@H](CC(=O)O)C(=O)O)C(=O)C[C@@H]3C` (stereo not given in full) the value was 40 nM.
For `CC(=O)OCC(=O)[C@@]1(O)C(C)CC2C3CCC4=CC(=O)C=C[C@]4(C)C3=CC[C@@]21C` (stereo not given in full) the value was 40000 nM; for `N#Cc1ccc(Cn2cncc2CN2CCN(c3ccccc3)C(=O)C2)cc1`, 5 nM.
In the case of `Cn1cncc1C(OCc1ccc(C#N)cc1NC(=O)c1ccccc1)c1ccc(C#N)cc1` (stereo not given) it was 5 nM; in that of `CC[C@@H](C)[C@@H](CN(CC(=O)N[C@@H](CCSC)C(=O)O)Cc1cccc2ccccc12)NC(=O)Cc1cncn1Cc1ccc(C#N)cc1`, 0.15 nM; in that of `CSCC[C@H](NC(=O)c1cccc2cc(NC[C@H](N)CS)ccc12)C(=O)O`, 18 nM.
The molecule `COC(=O)[C@H](CCSC)NC(=O)c1cccc2cc(NC[C@H](N)CS)ccc12` displayed an IC50 of 500 nM.
In the case of `COc1ccccc1CC(=O)N1C[C@@H]2[C@@H]3CC[C@@](c4ccccc4)(c4ccccc43)[C@@H]2C1` it was 40000 nM; in that of `O=C1CN(Cc2cncn2Cc2cccc(Oc3ccccc3)c2)CCN1c1ccc(C(F)(F)F)cc1`, 5800 nM.
Take `N#Cc1ccc(Cn2cncc2CN2CCN(c3cccc(Cl)c3)C(=O)C2)cc1Oc1ccc2ccccc2c1`: the IC50 is 1 nM.
Regarding `CC[C@@H](C)[C@@H](CN(CC(=O)N[C@@H](CCSC)C(=O)O)Cc1cccc2ccccc12)NC(=O)Cc1cn(Cc2ccncc2)cn1`, the midpoint of inhibition, the IC50, lay at 74 nM.
Turning to `CCCC[C@H]1CN(C(=O)c2cccc3ccccc23)CCN1Cc1cncn1Cc1ccc(C#N)cc1`, the IC50 was 21 nM.
For `Cc1cccc2c1[C@@H](O)[C@@H](Cn1ccnc1)S2` the value was 270000 nM; for `CCCC[C@H]1CN(c2ccc(Cl)cc2)C(=O)CN1Cc1cncn1Cc1ccc(C#N)cc1`, 0.44 nM; for `CC[C@]1(c2cccc(Oc3cc([C@@](C)(N)c4cncn4C)ccc3C#N)c2)CCCCN(C)C1=O`, 1.5 nM.
`CC[C@@]1(c2cccc(Oc3cc([C@@](C)(N)c4cncn4C)ccc3C#N)c2)CCCCN(C)C1=O` returned an IC50 of 0.06 nM.
For `C=C(C(=O)N1C[C@H]2[C@@]3(c4ccc(C)cc4)CC[C@H](c4ccccc43)[C@@]2(C(=O)O)C1)c1ccccc1OC` the value was 8 nM.
For `N#Cc1ccc2cc1Oc1ccc3cccc(c3c1)N1CCN(CC1=O)Cc1cncn1C2` the value was 0.1 nM; for `O=C(Cc1ccncc1)N1CCN([C@H]2c3ccc(Cl)cc3CCc3cccnc32)CC1`, 140 nM.
For `CC[C@@H](C)[C@@H](CO[C@@H](Cc1ccccc1)C(=O)N[C@@H](CCS(C)(=O)=O)C(=O)OC)NC[C@@H](N)CS` the value was 240 nM.
